Source: patent US12161642B2, “Ferrochelatase inhibitors and methods of use” (INDIANA UNIVERSITY RESEARCH AND TECHNOLOGY CORPORATION, priority 2018, dated 2024)

Assays:
[1] = biological target: recombinant human FECH (Homo sapiens (Human), UniProt P22830); assay: FECH enzymatic activity assay (Ni2+ mesoporphyrin IX formation, absorbance at 550 nm); format: biochemical; conditions: recombinant FECH; read-out: FECH IC50
Description: The human FECH expression plasmid pHDTF20 was obtained in E. coli cells from the Dailey Lab (University of Georgia). The cells were grown in Circlegrow medium (MP Biomedicals, LLC #3000-122) with ampicillin for 20 hours. Cells were harvested, lysed in a Tris-MOPS buffer and purified by immobilized metal affinity chromatography using HisPur Cobalt resin (Thermo Fisher #89965).
The activity assay buffer was 100 mM Tris-HCl pH 8.0 with 0.05% octyl glucoside detergent. Assay reagents included 100 μM NiCl (Sigma #339350), 0.75 μM FECH enzyme and 100 μM mesoporphyrin (Sigma #258806) prepared in ammonium hydroxide (Santa Cruz #sc-214535).
The kinetic assay was optimized for a 384-well format. For the 384-well assay, each well contained a 50 μL reaction with 40 μL buffer, 5 μL mesoporphyrin solution, 5 μL NiCl and FECH solution. […] This time point was used for the chemical screen.
A mixture of assay buffer, NiCl and FECH enzyme (15 μL) was added to all wells on the assay plate using a MulitFlo dispenser. To start the reaction, 15 μL of a 333 μM mesoporphyrin solution in assay buffer was added to the plate, the plate spun down and the absorbance at OD=550 nm immediately read to establish a read at time 0. Plates were read for absorbance at OD=550 nm again at t=20 minutes and the activity was expressed as the change in the absorbance over the 20 minute reaction.
Compounds, reordered from ChemDiv or synthesized as described above, were made to 10 mM in DMSO and tested in the FECH enzymatic assay at final concentrations of […] 100 μM (1% final DMSO concentration). IC50 values for the compounds were determined using GraphPad Prism software.
A kinetic assay to monitor FECH enzymatic activity was adapted from a published protocol (Burden et a., Biochim Biophys Acta 1435, 191-197 (1999)).

[2] = system: HRECs; assay: HREC proliferation assay (alamarBlue), GI50 determination; format: cell-based, human; conditions: proliferation of HRECs
Description: Human retinal microvascular endothelial cells (HRECs) were cultured in EGM-2 medium (Lonza). Cells (2500/well) in EGM-2 medium were plated in 48 wells in the center of a 96-well black with clear bottom TC treated plate are allowed to attach overnight. The cells were treated with compounds such that final assay concentrations were 100 μM, 30 μM, 10 μM, 3 μM, 1 μM, 100 nM, and 10 nM with DMSO control (1% final DMSO concentration). Cells were allowed to proliferate for 44 hours prior to addition of alamarBlue. The alamarBlue reagent is a flurorometric/colorimetric redox reagent that is reduced in the presence of growing cells. The assay was completed with a read of fluorescence at excitation of 560 nm and emission of 590 nm. GI50 values were determined using GraphPad Prism software.

Sequence of recombinant human FECH (P22830 55-423): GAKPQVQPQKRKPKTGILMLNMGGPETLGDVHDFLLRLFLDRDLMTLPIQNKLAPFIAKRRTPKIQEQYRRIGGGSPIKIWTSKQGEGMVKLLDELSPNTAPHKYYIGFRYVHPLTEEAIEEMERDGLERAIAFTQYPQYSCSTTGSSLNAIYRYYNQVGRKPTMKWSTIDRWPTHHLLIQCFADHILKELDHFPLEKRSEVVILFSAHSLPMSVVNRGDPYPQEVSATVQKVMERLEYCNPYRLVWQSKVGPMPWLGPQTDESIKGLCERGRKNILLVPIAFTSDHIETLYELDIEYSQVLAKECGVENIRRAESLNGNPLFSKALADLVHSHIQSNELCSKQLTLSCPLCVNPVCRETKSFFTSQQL

| SMILES | IC50 [1] [µM] | GI50 ([2]; Homo sapiens, HREC, 44 h) [µM] | GI50 ([2]; 44 hours) [µM] |
| --- | --- | --- | --- |
| CC(C)(C)c1ccc(-c2n[nH]c(N)n2)cc1 [Example 1, 3-(4-(tert-butyl)phenyl)-1H-1,2,4-triazol-5-amine] | > 100 | > 100 | – |
| Cc1cc(=O)n2nc(-c3ccc(C(C)(C)C)cc3)nc2[nH]1 [Example 2, 2-(4-(tert-butyl)phenyl)-5-methyl-[1,2,4]triazolo[1,5-a]pyrimidin-7(4H)-one] | > 100 | > 100 | – |
| CC(C)(C)c1ccc(-c2nc3[nH]c(CCl)cc(=O)n3n2)cc1 [Example 3, 2-(4-(tert-butyl)phenyl)-5-(chloromethyl)-[1,2,4]triazolo[1,5-a]pyrimidin-7(4H)-one] | > 100 | > 100 | – |
| CN(Cc1ccccc1)Cc1cc(=O)n2nc(-c3ccc(C(C)(C)C)cc3)nc2[nH]1 [Example 4a, 5-((benzyl(methyl)amino)methyl)-2-(4-(tert-butyl)phenyl)-[1,2,4]triazolo[1,5-a]pyrimidin-7(4H)-one] | > 100 | > 100 | – |
| CC(C)(C)c1ccc(-c2nc3[nH]c(CNc4ccnn4-c4ccccc4)cc(=O)n3n2)cc1 [Example 4b, 2-(4-(tert-butyl)phenyl)-5-(((1-phenyl-1H-pyrazol-5-yl)amino)methyl)-[1,2,4]triazolo[1,5-a]pyrimidin-7(4H)-one] | > 100 | > 100 | – |
| CC(C)(C)c1ccc(-c2nc3[nH]c(CNCCc4ccccc4)cc(=O)n3n2)cc1 [Example 4c, 2-(4-(tert-butyl)phenyl)-5-((phenethylamino)methyl)-[1,2,4]triazolo[1,5-a]pyrimidin-7(4H)-one] | > 100 | > 100 | – |
| CC(C)(C)c1ccc(-c2nc3[nH]c(CNc4cnccn4)cc(=O)n3n2)cc1 [Example 4d, 2-(4-(tert-butyl)phenyl)-5-((pyrazin-2-ylamino)methyl)-[1,2,4]triazolo[1,5-a]pyrimidin-7(4H)-one] | > 100 | > 100 | – |
| CC(C)(C)c1ccc(-c2nc3[nH]c(CNC4CCCC4)cc(=O)n3n2)cc1 [Example 4f, 2-(4-(tert-butyl)phenyl)-5-((cyclopentylamino)methyl)-[1,2,4]triazolo[1,5-a]pyrimidin-7(4H)-one] | > 100 | > 100 | – |
| CCN(CC)Cc1cc(=O)n2nc(-c3ccc(C(C)(C)C)cc3)nc2[nH]1 [Example 4g, 2-(4-(tert-butyl)phenyl)-5-((diethylamino)methyl)-[1,2,4]triazolo[1,5-a]pyrimidin-7(4H)-one] | > 100 | > 100 | – |
| CCCc1cc(=O)n2nc(CNc3cccc(C)c3)nc2[nH]1 [Example 5b, 5-propyl-2-((m-tolylamino)methyl)-[1,2,4]triazolo[1,5-a]pyrimidin-7(4H)-one] | 0.508 | > 100 | – |
| CCCc1cc(=O)n2nc(CNc3cccc(Cl)c3)nc2[nH]1 [Example 5e, 2-(((3-chlorophenyl)amino)methyl)-5-propyl-[1,2,4]triazolo[1,5-a]pyrimidin-7(4H)-one] | 0.346 | > 100 | – |
| CCCc1cc(=O)n2nc(CNc3ccc(Cl)cc3)nc2[nH]1 [Example 5f, 2-(((4-chlorophenyl)amino)methyl)-5-propyl-[1,2,4]triazolo[1,5-a]pyrimidin-7(4H)-one] | 0.0916 | – | > 100 |
| CCCc1cc(=O)n2nc(CNc3ccccc3-c3ccccc3)nc2[nH]1 [Example 5g, 2-(([1,1′-biphenyl]-2-ylamino)methyl)-5-propyl-[1,2,4]triazolo[1,5-a]pyrimidin-7(4H)-one] | 27.3 | > 100 | – |
| CCCc1cc(=O)n2nc(CNc3ccc(F)c(Cl)c3)nc2[nH]1 [Example 5i, 2-(((3-chloro-4-fluorophenyl)amino)methyl)-5-propyl-[1,2,4]triazolo[1,5-a]pyrimidin-7(4H)-one] | 0.0336 | > 100 | – |
| CCCc1cc(=O)n2nc(CNc3ccc(CC)cc3)nc2[nH]1 [Example 5j, 2-(((4-ethylphenyl)amino)methyl)-5-propyl-[1,2,4]triazolo[1,5-a]pyrimidin-7(4H)-one] | 10.6 | > 100 | – |
| CCCc1cc(=O)n2nc(CNc3ccc(F)c(F)c3)nc2[nH]1 [Example 5k, 2-(((3,4-difluorophenyl)amino)methyl)-5-propyl-[1,2,4]triazolo[1,5-a]pyrimidin-7(4H)-one] | 0.0429 | > 100 | – |
| CCCCCOc1ccc(NCc2nc3[nH]c(CCC)cc(=O)n3n2)cc1 [Example 5l, 2-(((4-(pentyloxy)phenyl)amino)methyl)-5-propyl-[1,2,4]triazolo[1,5-a]pyrimidin-7(4H)-one] | 78 | > 100 | – |

| SMILES | IC50 [1] [µM] | GI50 ([2]; Homo sapiens, HREC, 44 h) [µM] | GI50 ([2]; 44 hours) [µM] |
| --- | --- | --- | --- |
| CCCc1cc(=O)n2nc(CNc3ccc(F)cc3)nc2[nH]1 [Example 5m, 2-(((4-fluorophenyl)amino)methyl)-5-propyl-[1,2,4]triazolo[1,5-a]pyrimidin-7(4H)-one] | 0.525 | > 100 | – |
| CCCc1cc(=O)n2nc(CNc3ccc(OC(F)(F)F)cc3)nc2[nH]1 [Example 5n, 5-propyl-2-(((4-(trifluoromethoxy)phenyl)amino)methyl)-[1,2,4]triazolo[1,5-a]pyrimidin-7(4H)-one] | 34.1 | > 100 | – |
| Cc1ccccc1NCc1nc2[nH]c3c(c(=O)n2n1)CCC3 [Example 5o, 2-((o-tolylamino)methyl)-4,5,6,7-tetrahydro-8H-cyclopenta[d][1,2,4]triazolo[1,5-a]pyrimidin-8-one] | > 100 | > 100 | – |
| Cc1cccc(NCc2nc3[nH]c4c(c(=O)n3n2)CCC4)c1 [Example 5p, 2-((m-tolylamino)methyl)-4,5,6,7-tetrahydro-8H-cyclopenta[d][1,2,4]triazolo[1,5-a]pyrimidin-8-one] | 9.34 | > 100 | – |
| Cc1ccc(NCc2nc3[nH]c4c(c(=O)n3n2)CCC4)cc1 [Example 5q, 2-((p-tolylamino)methyl)-4,5,6,7-tetrahydro-8H-cyclopenta[d][1,2,4]triazolo[,5-a]pyrimidin-8-one] | 3.62 | > 100 | – |
| Cc1ccccc1NCc1nc2[nH]c(C(C)C)cc(=O)n2n1 [Example 5r, 5-isopropyl-2-((o-tolylamino)methyl)-[1,2,4]triazolo[1,5-a]pyrimidin-7(4H)-one] | 17.9 | > 100 | – |
| Cc1cccc(NCc2nc3[nH]c(C(C)C)cc(=O)n3n2)c1 [Example 5s, 5-isopropyl-2-((m-tolylamino)methyl)-[1,2,4]triazolo[1,5-a]pyrimidin-7(4H)-one] | 28.1 | > 100 | – |
| Cc1ccc(NCc2nc3[nH]c(C(C)C)cc(=O)n3n2)cc1 [Example 5t, 5-isopropyl-2-((p-tolylamino)methyl)-[1,2,4]triazolo[1,5-a]pyrimidin-7(4H)-one] | 16.8 | > 100 | – |
| Cc1cc(=O)n2nc(CNc3ccccc3C)nc2[nH]1 [Example 5u, 5-methyl-2-((o-tolylamino)methyl)-[1,2,4]triazolo[1,5-a]pyrimidin-7(4H)-one] | 77.2 | > 100 | – |
| Cc1cccc(NCc2nc3[nH]c(C)cc(=O)n3n2)c1 [Example 5v, 5-methyl-2-((m-tolylamino)methyl)-[1,2,4]triazolo[1,5-a]pyrimidin-7(4H)-one] | 18.7 | > 100 | – |
| Cc1ccc(NCc2nc3[nH]c(C)cc(=O)n3n2)cc1 [Example 5w, 5-methyl-2-((p-tolylamino)methyl)-[1,2,4]triazolo[1,5-a]pyrimidin-7(4H)-one] | 22.5 | > 100 | – |
| COc1ccc(Cl)cc1NCc1cc(=O)n2nc(-c3ccc(C(C)(C)C)cc3)nc2[nH]1 [Example D351-0303] | 0.808 | 21.7 | – |
| Cc1ccc(Cl)cc1NCc1cc(=O)n2nc(-c3ccc(C(C)(C)C)cc3)nc2[nH]1 [Example D351-0310] | 0.0981 | 42.3 | – |
| Cc1cccc(C)c1NCc1cc(=O)n2nc(-c3ccc(C(C)(C)C)cc3)nc2[nH]1 [Example D351-0312] | 1.39 | > 100 | – |
| COc1cccc(NCc2cc(=O)n3nc(-c4ccc(C(C)(C)C)cc4)nc3[nH]2)c1 [Example D351-0319] | – | > 100 | – |
| Cc1ccc(Cl)cc1NCc1cc(=O)n2nc(-c3ccccc3C)nc2[nH]1 [Example D351-0414] | 0.346 | > 100 | – |
| Cc1c(Cl)cccc1NCc1nc2[nH]c(C(C)C)cc(=O)n2n1 [Example D433-1800] | 0.751 | – | – |
